Patent publication US9783518B2, “Therapeutic agent and treatment method for ameliorating uremia” (Toray Industries, Inc., priority 2005, dated 2017)
“Also recorded” adds a separate entry of the source.

How the values were obtained:
[1] = system: cats with chronic renal failure; assay: Blood biochemical analysis and urinalysis (BUN, serum Cre, glucose) in cats with chronic renal failure; assay type: in vivo, cat
Description: Testing methods for the patients showing uremia caused by chronic renal failure, employed in Example 4 or later, will now be described. The criteria and evaluation items for the cats and dogs with chronic renal failure are as follows: Diagnosis of uremia and chronic renal failure were performed totally taking clinical findings (including findings of uremia) and the results of the blood test, blood biochemical analysis and urinalysis into consideration. As the clinical findings of uremia, existence and degree of polydipsia and diuresis, dehydration, anorexia, weight loss, vomiting symptom and state of dehydration were observed. Existence of chronic renal failure was judged based on the serum Cre value as generally employed. As reference data for grasping the degree of progress of chronic renal failure, BUN value was also monitored.
In the blood test, RBC, WBC, PCV, Hg and PLT were measured. In the blood biochemical analysis, TP, Tcho, AST, ALT, ALP, Tbil, BUN, creatinine, calcium, inorganic phosphorus, glucose, sodium ion, potassium ion and chloride ion were measured. In the urinalysis, protein amount, pH, occult blood, bilirubin and glucose were measured. To eliminate the circadian rhythm and influence by meals on the values of blood biochemical markers, every blood collection was carried out in the morning before feeding (at fasting).
As a more specific criterion for chronic renal failure in cats and dogs in the present Examples, a serum Cre value of 1.4 mg/dL in the blood test was employed. Serum Cre value was measured by creatinine deaminase-amidohydrolase method, and the BUN value as reference data for grasping the degree of progress of chronic renal failure was measured by urease-GLDH method.
Administration of beraprost sodium was conducted by orally administering the tablet with a content of 150 μg/tablet (Example 1) twice a day (300 μg/head/day). The administration was conducted every day and continued basically for 6 months, and in cases where the owner desired, the administration was continued even after the test period. The Examples of the present invention include both cases where the dosing period was less than 6 months and more than 6 months.

healthy cats = assay: Observation of general clinical symptoms (adverse events) after administration of beraprost sodium to healthy cats; assay type: in vivo, cat; design: key to grade of adverse events (diarrhea, vomiting, sedation) / grade of adverse events (vomiting, diarrhea, sedation): no abnormality observed (Grade 0); slight (Grade 1); moderate (Grade 2); severe (Grade 3); conditions: for adverse events (clinical symptoms): 5 healthy cats
Description: In this study, 3 male cats and 2 female cats, totally 5 Japanese cats, aging 3 to 6 years old were used, which were raised in an animal hospital and for which no abnormalities were observed clinically and by blood test. The subject cats were individually placed in each cage in which each cat was allowed to take water ad libitum, and each cat was fed twice a day after measuring the necessary items. For the purpose of acclimatization, the cats were measured for blood pressure noninvasively twice a day for 2 weeks.
Observations of general clinical symptoms caused by administration of beraprost sodium to healthy cats were performed as follows: Whether adverse events such as ataxia, sedation, lying, suffusion of visible mucosa, lacrimation, hypersalivation, vomiting, diarrhea, incontinence and change in respiratory conditions were expressed or not was observed. Observation was performed before administration, and 30 minutes, 1 hour, 2 hours and 3 hours after each administration during the continuous 7 days in which the drug was administered every day. Each evaluation was performed by rating in 4 ranks as follows: Respiratory conditions were ranked into: no abnormality observed (Grade 0); accelerated respiration (Grade 1); hypopnea (Grade 2); and dyspnea (Grade 3). Ataxia was ranked into: no abnormality observed (Grade 0); slight (Grade 1); moderate (Grade 2); and abasia (Grade 3). Sedation (response to verbal contact) and lying (response to verbal contact) were ranked into: no abnormality observed (Grade 0); slight (Grade 1); moderate (Grade 2); and no response (Grade 3). Evaluations of lacrimation, hypersalivation, vomiting, diarrhea and incontinence were ranked into: no abnormality observed (Grade 0); slight (Grade 1); moderate (Grade 2); and severe (Grade 3).
In each administration series, the same cat was used in each administration series as the subject cat for the correctness of the evaluation of the test drug. To eliminate the influence of the test drug of the previous series, wash out period of 2 weeks were given after the termination of the respective series. In the beraprost sodium administration series and the placebo administration series, the solution-containing capsules prepared in Example 2 were used. Administration was performed orally at fasting twice a day at intervals of 12 hours for continuous 7 days.
Statistical analysis was carried out using a statistical software Stat View J-4.5 (Abacus Concepts). Since the parameter values before and after the administration to the same individual are compared, significant test was carried out by the paired t-test. In any of the cases, when the significance level was less than 5%, it was judged as significant.

[2] = system: immune complex-induced glomerulonephritis mouse NZB/WF1; conditions: administered before onset; cited from earlier work
[3] = system: rat glomerulonephritis models; conditions: prophylactic administration before the nephritis-inducing substance; cited from earlier work
[4] = Case-A, 150 μg oral BID alone, from start of administration
[5] = Case-A, 6 months after termination (12 months after start)
[6] = Case-B, daily administration for 1 and half years
[7] = Case-E, combination therapy, first about 3 months
[8] = Case-G cat, before the administration (baseline)

SMILES: CC#CC[C@@H](C)[C@H](O)/C=C/[C@@H]1[C@H]2c3cccc(CCCC(=O)[O-])c3O[C@H]2C[C@H]1O.[Na+] (mixture of isomers) [beraprost sodium, Sodium rac-(1R,2R,3aS,8bS)-2,3,3a,8b-tetrahydro-2-hydroxy-1-[(E)-(3S,4RS)-3-hydroxy-4-methyloct-1-en-6-ynyl]-1H-cyclopenta[b][1]benzofuran-5-butanoate]
- time at which BUN reached the minimum value ([1]; Case-A, 150 μg oral BID alone): second
- time at which serum Cre reached the minimum value ([1]; Case-A, 150 μg oral BID alone): fifth
- BUN [1, 4]: decreased
- serum Cre [1, 4]: decreased
- BUN at follow up [1, 5]: remained within the normal ranges; also recorded: maintained at normal levels
- serum Cre value at follow up [1, 5]: remained within the normal ranges; also recorded: maintained at normal levels
- BUN [1, 6]: maintained at the normal levels
- Cre [1, 6]: maintained at the normal levels
- BUN value ([1]; Case-B, first to second month): tendency that BUN value and serum Cre value increase
- serum Cre value ([1]; Case-B, first to second month): tendency that BUN value and serum Cre value increase
- BUN value ([1]; Case-B, from the fourth month): sharply decreased to the normal values
- serum Cre value ([1]; Case-B, from the fourth month): sharply decreased to the normal values
- BUN value ([1]; Case-C, during administration): continuously increased
- serum Cre value ([1]; Case-C, during administration): did not change or slightly increased
- BUN value ([1]; Case-D, after administration): continuously increased
- serum Cre value ([1]; Case-D, after administration): kept a high value
- BUN value ([1]; Case-E, 7th to 8th month): largely increased
- Cre value ([1]; Case-E, 7th to 8th month): kept high
- BUN value [1, 7]: continuously increased
- serum Cre value [1, 7]: kept high
- BUN value ([1]; Case-F, after start of beraprost sodium): kept high
- serum Cre value ([1]; Case-F, throughout the entire period): continuously increased
- BUN value [1, 8]: 52.2 mg/dL
- serum Cre value [1, 8]: 2.56 mg/dL
- adverse events (clinical symptoms) (healthy cats; 10 μg/kg/BID oral, 7 days): not observed at all
- adverse events (clinical symptoms) (healthy cats; 30 μg/kg/BID oral, 7 days): not observed at all
- grade of adverse events (diarrhea, vomiting, sedation) (healthy cats; 70 μg/kg/BID oral, 7 days): Grade 1
- cases with adverse events such as diarrhea, vomiting and sedation (healthy cats; 70 μg/kg/BID oral, 7 days, sporadic, 2 to 6 days after administration): 2/5
- time of occurrence of adverse events after the administration (healthy cats; 100 μg/kg/BID oral): ≤ 2 h
- grade of adverse events (vomiting, diarrhea, sedation) (healthy cats; 100 μg/kg/BID oral, 7 days): Grade 2
- cats with vomiting, diarrhea and sedation (healthy cats; 100 μg/kg/BID oral, 7 days, from Day 2, frequent): all cats
- reversibility of adverse events (healthy cats; 70 and 100 μg/kg/BID series, after 7 days): disappeared by the next day of the final administration
- onset of glomerulonephritis (index: urinary excretion of albumin) [2]: can be inhibited
- onset of nephritis (urinary excretion of albumin) [3]: prevented
